From article PMC11377810, “A Gaussia luciferase reporter assay for the evaluation of coronavirus Nsp5/3CLpro activity” (Scientific Reports, 2024)

Columns and labels:
SARS-CoV-2 Nsp5 [1] = molecular target: T1, SARS-CoV-2 Nsp5 (Severe acute respiratory syndrome coronavirus 2, UniProt P0DTD1)
COVID-19 = details: cited from earlier work
SARS-CoV-2 Nsp5 [2] = molecular target: T1, SARS-CoV-2 Nsp5; experiment: cell-based
HEK293T reporter cells [3] = experiment: MTT assay of cell metabolic activity of reporter cells; details: at the active concentrations ≥ 20 µM, Fig. 4c
[4] = in vivo, cited from earlier work
HEK293T reporter cells [5] = system: HEK293T reporter cells

For `Cc1cccc(C)c1OCC(=O)N[C@@H](Cc1ccccc1)[C@@H](O)C[C@H](Cc1ccccc1)NC(=O)[C@H](C(C)C)N1CCCNC1=O` [Lopinavir], the “concentrations that significantly decreased the Gaussia luciferase signal (lowest significantly active dose)” value (SARS-CoV-2 Nsp5 [1]) is listed as ≥ 20 µM, the “effective and non-cytotoxic concentration range” value (SARS-CoV-2 Nsp5 [1]) is listed as 8 to 64 µM and the “benefit in the treatment of COVID-19” value (COVID-19; COVID-19 patients, clinical trials) is listed as “little to no benefit”. For the same compound, the “benefit in COVID-19 patients” value (COVID-19; multiple clinical trials) was “no significant benefit”, the IC50 (SARS-CoV-2 Nsp5 [2]; IC50, inhibition of Nsp5 reporter (Gaussia luciferase) activity) was 21 µM and the IC50 (SARS-CoV-2 Nsp5 [2]; IC50, inhibition of Nsp5 reporter activity, re-evaluated at lower nontoxic concentrations, additional concentrations, 8–64 µM range (Fig. 4e)) was 12 µM. For the same compound, the “cytotoxicity (MTT)” value (HEK293T reporter cells [3]) was “cytotoxic at all of the tested active concentrations”.

In the case of `COc1cccc2[nH]c(C(=O)N[C@@H](CC(C)C)C(=O)N[C@@H](C[C@@H]3CCNC3=O)C(=O)COP(=O)(O)O)cc12` [Lufotrelvir], the oral bioavailability ([4]; po) is listed as “low” and the systemic clearance [4] is listed as “fast”.

For `COc1cccc2[nH]c(C(=O)N[C@@H](CC(C)C)C(=O)N[C@@H](C[C@@H]3CCNC3=O)C(=O)CO)cc12` [PF-00835231], the non-cytotoxic concentrations (HEK293T reporter cells [5]) was ≤ 50 µM.
